Test results taken from patent publication US20050256204A1, “Topical phenyl-epinephrine Rosacea treatment” (priority 2004, published 2005).

Assays:
[1] = tested on: skin reddening symptoms of Rosacea and other facial skin disorders; conditions: topical applications in a cosmetic lotion, applied as needed
Source text: For example, using step 106 alone. Further embodiments of the present invention therefore comprise phenyl-epinephrine cosmetic skin lotion. The skin lotion is applied as needed by the user, e.g., just before going out in public.

[2] = tested on: non-mucous membrane skin tissues; conditions: topical application; phenyl-epinephrine strength of at least one percent; water-based gel
Source text: The topical applications of phenyl-epinephrine used in steps 104, 106, and 108, can include the use of a skin lotion comprising phenyl-epinephrine in solution with a strength sufficient for transdermal absorption by non-mucous membrane skin tissues. Such phenyl-epinephrine is the only active ingredient, and it is preferably compounded with a water-based gel. Such gel provides for holding the phenyl-epinephrine in contact with a user's skin for a minimal residence time sufficient to induce vasoconstriction.

In the case of `CNC[C@H](O)c1cccc(O)c1` [phenyl-epinephrine], the “relief of skin reddening symptoms” value [1] was “temporary relief of skin reddening symptoms” and the vasoconstriction [2] was “produced the desired vasoconstriction”.
